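How tested: cells in 96-well plates exposed to compound for 48 hours at five concentrations. GI50 is the concentration that inhibits growth by half. TGI is the concentration that stops growth completely.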
Experiments:
Assay in all cases: DTP human tumour cell line panel, 48 h
MCF7 breast = tested on: MCF7 breast
LOX IMVI melanoma = tested on: LOX IMVI melanoma
CCRF-CEM leukemia = tested on: CCRF-CEM leukemia
DU-145 prostate = tested on: DU-145 prostate
UO-31 renal = tested on: UO-31 renal
SF-268 CNS = tested on: SF-268 CNS
A498 renal = tested on: A498 renal
MDA-MB-435 = tested on: MDA-MB-435
SN12C renal = tested on: SN12C renal
SR leukemia = tested on: SR leukemia

Compound | GI50 (MCF7 breast) [µM] | TGI (MCF7 breast) [µM] | GI50 (LOX IMVI melanoma) [µM] | TGI (LOX IMVI melanoma) [µM] | GI50 (CCRF-CEM leukemia) [µM] | TGI (CCRF-CEM leukemia) [µM] | GI50 (DU-145 prostate) [µM] | TGI (DU-145 prostate) [µM] | GI50 (UO-31 renal) [µM] | TGI (UO-31 renal) [µM] | GI50 (SF-268 CNS) [µM] | TGI (SF-268 CNS) [µM] | GI50 (A498 renal) [µM] | TGI (A498 renal) [µM] | GI50 (MDA-MB-435) [µM] | TGI (MDA-MB-435) [µM] | GI50 (SN12C renal) [µM] | TGI (SN12C renal) [µM] | GI50 (SR leukemia) [µM] | TGI (SR leukemia) [µM]
O=C(Nc1cccc(-n2ccc3c(NC(=O)c4ccccc4)nccc32)c1)Nc1cc(C(F)(F)F)cc(C(F)(F)F)c1 | 1.65 | > 50 | 2.12 | > 50 | 1.76 | > 50 | 1.68 | 7.97 | 2.4 | > 50 | 2.71 | > 50 | 1.53 | > 50 | 1.23 | 3.21 | 2.05 | 29.4 | 1.72 | 6.48
Cn1c(=O)c(C(=O)Nc2nc(C34CC5CC(CC(C5)C3)C4)cs2)c(O)c2ccccc21 |  | > 100 |  | > 100 |  | > 100 |  | > 100 |  | > 100 |  | > 100 |  | > 100 |  | > 100 |  | > 100 |  | > 100
CCCCCCCCOC1C(O)C(O)C(O)C(O)C12CO2 (centres undefined) |  | > 100 |  | > 100 |  | > 100 |  | > 100 |  | > 100 |  | > 100 |  | > 100 |  | > 100 |  | > 100 |  | > 100
O=S(=O)(O)c1cc(O)c2c(N=Cc3ccccc3O)cc(S(=O)(=O)O)cc2c1 |  | > 100 |  | > 100 |  | > 100 |  | > 100 |  | > 100 |  | > 100 |  | > 100 |  | > 100 |  | > 100 |  | > 100
CC(O)c1cc2c(s1)C(=O)c1sccc1C2=O (centres undefined) |  | 1.89 |  | 0.29 |  | > 100 |  | 0.0347 |  | 0.359 |  | 0.61 |  | 0.429 |  | 0.0522 |  | 0.192 |  | > 100
COc1ccc2nc3ccc(OC)cc3c(SCCO)c2c1 |  | > 62.3 |  | > 63 |  | > 31.1 |  | 37.1 |  | > 100 |  | 96.9 |  | > 100 |  | > 100 |  | > 100 |  | > 79.1
O=C(/C=C/c1ccc(O)c(O)c1)OCCCc1ccccc1 |  | 26.8 |  | 27.1 |  |  |  | 31.6 |  | 14.8 |  | 24 |  | 30.4 |  | 24.6 |  | 25.3 |  | 22.8
CC(=O)OCCCOCn1c(Cc2ccccc2)c(C)c(=O)[nH]c1=O |  | > 100 |  | > 100 |  | > 100 |  | > 100 |  | > 100 |  | > 100 |  | > 100 |  | > 100 |  | > 100 |  | > 100
Nn1c(COc2cccc(OCc3n[nH]c(=S)n3N)c2)n[nH]c1=S |  | > 100 |  | > 100 |  | > 100 |  | > 100 |  | > 100 |  | > 100 |  | > 100 |  | > 100 |  | > 100 |  | 34.6

Reference: PubChem BioAssay (NCI)
